Data on one compound can be found in paper PMC4577076, “Detoxification of Indole by an Indole-Induced Flavoprotein Oxygenase from Acinetobacter baumannii” (PLoS ONE, 2015).

This assay addresses T1, IifC (Acinetobacter baumannii, UniProt A0ABX6CFV1).
T1 construct: gene styA; full length, 412 aa; pQE-80L (BamHI/PstI); expressed in E. coli CY15000 (tnaA mutant); purified by Q-Sepharose anion exchange
T1 sequence (A0ABX6CFV1 1-412): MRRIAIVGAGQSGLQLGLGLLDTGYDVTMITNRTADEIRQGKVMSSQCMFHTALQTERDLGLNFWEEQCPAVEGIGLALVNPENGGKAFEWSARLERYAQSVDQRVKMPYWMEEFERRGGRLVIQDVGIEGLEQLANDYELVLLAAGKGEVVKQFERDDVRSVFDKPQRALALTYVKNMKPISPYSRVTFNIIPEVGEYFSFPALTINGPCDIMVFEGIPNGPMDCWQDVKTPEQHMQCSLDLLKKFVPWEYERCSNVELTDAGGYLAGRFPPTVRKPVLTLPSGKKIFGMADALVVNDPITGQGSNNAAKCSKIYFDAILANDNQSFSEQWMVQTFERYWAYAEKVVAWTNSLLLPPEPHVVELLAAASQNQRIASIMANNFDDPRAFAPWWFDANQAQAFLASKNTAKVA
Put plainly: FAD content of purified protein. The following applies: as purified from E. coli; non-covalently bound. It is filed as binding.

Regarding `Cc1cc2nc3c(=O)[nH]c(=O)nc-3n(C[C@H](O)[C@H](O)[C@H](O)COP(=O)(O)OP(=O)(O)OC[C@H]3O[C@@H](n4cnc5c(N)ncnc54)[C@H](O)[C@@H]3O)c2cc1C` [flavin adenine dinucleotide], the “mol FAD per mol protein” value was 0.48 mol/mol.
